# Measurements as given in ChEMBL document CHEMBL2069187, “2-Amino-1,3,4-thiadiazole derivative (FABT) inhibits the extracellular signal-regulated kinase pathway and induces cell cycle arrest in human non-small lung carcinoma cells” (Bioorg Med Chem Lett, 2012).
# The source made the active and inactive calls. The calls are words filed in the database; no cut-off is given here.
# Columns and labels:
# A549 [1] = experiment: Effect on CREB1 gene expression in human A549 cells at 5 to 25 uM after 24 hrs by RT-PCR analysis; assay type: functional, cell-based
# Homo sapiens [2] = species: Homo sapiens; experiment: Antiproliferative activity against human lung adenocarcinoma cells; assay type: functional
# A549 [3] = experiment: Inhibition of Rsk90 phosphorylation in human A549 cells after 24 hrs by Western blot analysis; assay type: cell-based
# A549 [4] = experiment: Effect on total ERK1/2 levels in human A549 cells by Western blot analysis; assay type: functional, cell-based
# Homo sapiens [5] = species: Homo sapiens; experiment: Antiproliferative activity against human colon adenocarcinoma cells; assay type: functional
# [6] = Antiproliferative activity against human astrocytes; assay type: cell-based; settings: astrocyte
# [7] = biological target: T1, Mitogen-activated protein kinase; ERK1/ERK2 (Homo sapiens) (UniProt P27361+P28482); experiment: Inhibition of ERK1/2 phosphorylation in human A549 cells at 25 uM by Western blot analysis; assay type: cell-based; settings: TDE = time-dependent effect
# T1 sequence (P27361 whole entry, looked up): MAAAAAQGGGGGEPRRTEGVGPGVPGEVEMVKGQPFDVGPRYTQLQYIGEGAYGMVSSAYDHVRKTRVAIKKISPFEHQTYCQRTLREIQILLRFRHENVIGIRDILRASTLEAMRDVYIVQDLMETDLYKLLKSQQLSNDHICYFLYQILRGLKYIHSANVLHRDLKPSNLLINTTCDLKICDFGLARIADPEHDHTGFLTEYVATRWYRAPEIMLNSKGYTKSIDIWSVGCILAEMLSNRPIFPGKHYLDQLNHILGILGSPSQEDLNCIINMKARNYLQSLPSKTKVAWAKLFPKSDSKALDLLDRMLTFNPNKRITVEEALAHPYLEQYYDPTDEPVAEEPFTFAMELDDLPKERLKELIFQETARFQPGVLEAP
# T1 sequence (P28482 whole entry, looked up): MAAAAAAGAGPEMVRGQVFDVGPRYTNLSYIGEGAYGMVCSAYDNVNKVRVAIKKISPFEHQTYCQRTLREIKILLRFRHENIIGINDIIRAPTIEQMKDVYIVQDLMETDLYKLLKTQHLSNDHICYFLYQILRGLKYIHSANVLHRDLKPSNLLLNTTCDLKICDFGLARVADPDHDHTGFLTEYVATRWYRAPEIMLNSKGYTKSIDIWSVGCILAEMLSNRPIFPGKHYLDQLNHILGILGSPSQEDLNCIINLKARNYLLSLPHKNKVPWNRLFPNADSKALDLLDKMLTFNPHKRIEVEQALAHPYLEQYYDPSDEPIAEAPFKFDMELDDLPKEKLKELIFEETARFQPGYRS
# A549 [8] = experiment: Cell cycle arrest in human A549 cells assessed as accumulation at S phase at 50 uM after 24 hrs by acridine orange staining-based flow cytometry (Rvb =26.89 +/- 2.997 %); assay type: functional
# Rhabdomyosarcoma cell = experiment: Antiproliferative activity against human rhabdomyosarcoma cells; assay type: functional, cell-based
# A549 [9] = experiment: Cell cycle arrest in human A549 cells assessed as accumulation at G2/M phase at 25 uM after 24 hrs by acridine orange staining-based flow cytometry (Rvb =16.66 +/- 0.622 %); assay type: functional
# A549 [10] = experiment: Effect on p27/Kip protein expression in human A549 cells at 1 to 100 uM after 24 hrs by Western blot analysis; assay type: functional, cell-based
# [11] = biological target: T1, Mitogen-activated protein kinase; ERK1/ERK2 (Homo sapiens); experiment: Inhibition of ERK1/2 phosphorylation in human A549 cells after 24 hrs by Western blot analysis; assay type: cell-based
# A549 [12] = experiment: Cell cycle arrest in human A549 cells assessed as accumulation at G0/G1 phase at 10 uM after 24 hrs by acridine orange staining-based flow cytometry (Rvb =44.85 +/- 0.866 %); assay type: functional
# A549 [13] = experiment: Cell cycle arrest in human A549 cells assessed as accumulation at G0/G1 phase at 25 uM after 24 hrs by acridine orange staining-based flow cytometry (Rvb =44.85 +/- 0.866 %); assay type: functional
# A549 [14] = experiment: Cell cycle arrest in human A549 cells assessed as accumulation at G2/M phase at 10 uM after 24 hrs by acridine orange staining-based flow cytometry (Rvb =16.66 +/- 0.622 %); assay type: functional
# A549 [15] = experiment: Effect on cyclinD1 protein expression in human A549 cells at 1 to 100 uM after 24 hrs by Western blot analysis; assay type: functional, cell-based
# Medulloblastoma cell = experiment: Antiproliferative activity against human medulloblastoma cells; assay type: functional
# A549 [16] = experiment: Effect on total ERK1/2 levels in human A549 cells by Western blot analysis in presence of PMA; assay type: functional, cell-based
# A549 [17] = experiment: Cell cycle arrest in human A549 cells assessed as accumulation at S phase at 25 uM after 24 hrs by acridine orange staining-based flow cytometry (Rvb =26.89 +/- 2.997 %); assay type: functional
# [18] = biological target: Dual specificity mitogen-activated protein kinase kinase; MEK1/2 (Homo sapiens) (UniProt P36507+Q02750); experiment: Inhibition of MEK1/2 phosphorylation in human A549 cells after 24 hrs by Western blot analysis; assay type: cell-based
# Chain of Dual specificity mitogen-activated protein kinase kinase; MEK1/2 (Homo sapiens) (P36507 whole entry, looked up): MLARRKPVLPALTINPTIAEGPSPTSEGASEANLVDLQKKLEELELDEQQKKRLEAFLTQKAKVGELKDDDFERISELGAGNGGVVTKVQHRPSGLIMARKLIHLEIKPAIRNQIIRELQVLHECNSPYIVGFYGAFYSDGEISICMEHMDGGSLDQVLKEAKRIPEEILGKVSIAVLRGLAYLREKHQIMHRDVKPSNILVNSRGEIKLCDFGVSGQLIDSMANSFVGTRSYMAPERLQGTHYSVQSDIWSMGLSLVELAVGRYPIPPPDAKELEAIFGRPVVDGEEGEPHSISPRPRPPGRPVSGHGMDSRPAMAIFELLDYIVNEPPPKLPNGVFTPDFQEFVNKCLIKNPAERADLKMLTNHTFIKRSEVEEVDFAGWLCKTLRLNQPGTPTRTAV
# Chain of Dual specificity mitogen-activated protein kinase kinase; MEK1/2 (Homo sapiens) (Q02750 whole entry, looked up): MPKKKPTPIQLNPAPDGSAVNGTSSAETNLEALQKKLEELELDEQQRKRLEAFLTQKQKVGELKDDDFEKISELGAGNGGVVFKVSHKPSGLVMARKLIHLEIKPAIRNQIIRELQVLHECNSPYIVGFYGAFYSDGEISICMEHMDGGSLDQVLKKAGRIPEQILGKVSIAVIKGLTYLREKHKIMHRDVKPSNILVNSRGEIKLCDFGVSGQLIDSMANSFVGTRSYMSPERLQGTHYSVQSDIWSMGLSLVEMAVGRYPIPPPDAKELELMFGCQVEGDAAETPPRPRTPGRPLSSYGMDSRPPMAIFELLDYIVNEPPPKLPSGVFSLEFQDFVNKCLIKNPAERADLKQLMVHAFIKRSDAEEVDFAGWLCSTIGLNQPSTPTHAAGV
# A549 [19] = experiment: Cell cycle arrest in human A549 cells assessed as accumulation at G0/G1 phase at 50 uM after 24 hrs by acridine orange staining-based flow cytometry (Rvb =44.85 +/- 0.866 %); assay type: functional
# A549 [20] = experiment: Effect on p21Waf1/Cip1 protein expression in human A549 cells at 1 to 100 uM after 24 hrs by Western blot analysis; assay type: functional, cell-based
# A549 [21] = experiment: Cell cycle arrest in human A549 cells assessed as accumulation at G2/M phase at 50 uM after 24 hrs by acridine orange staining-based flow cytometry (Rvb =16.66 +/- 0.622 %); assay type: functional
# [22] = Antiproliferative activity against human skin fibroblast
# A549 [23] = experiment: Effect on ERK1 gene expression in human A549 cells at 5 to 25 uM after 24 hrs by RT-PCR analysis; assay type: functional, cell-based
# Homo sapiens [24] = species: Homo sapiens; experiment: Antiproliferative activity against human neuroblastoma cells; assay type: functional, cell-based
# A549 [25] = experiment: Cell cycle arrest in human A549 cells after 24 hrs by acridine orange staining-based flow cytometry; assay type: functional
# A549 [26] = experiment: Inhibition of CREB phosphorylation in human A549 cells after 24 hrs by Western blot analysis; assay type: cell-based
# Glioma cell = experiment: Antiproliferative activity against human glioma cells; assay type: functional, cell-based
# [27] = biological target: T1, Mitogen-activated protein kinase; ERK1/ERK2 (Homo sapiens); experiment: Inhibition of ERK1/2 phosphorylation in human A549 cells assessed as peak effect time by Western blot analysis; assay type: cell-based
# [28] = biological target: T1, Mitogen-activated protein kinase; ERK1/ERK2 (Homo sapiens); experiment: Inhibition of PMA-stimulated ERK1/2 phosphorylation in human A549 cells after 24 hrs by Western blot analysis; assay type: cell-based
# A549 [29] = experiment: Cell cycle arrest in human A549 cells assessed as accumulation at S phase at 10 uM after 24 hrs by acridine orange staining-based flow cytometry (Rvb =26.89 +/- 2.997 %); assay type: functional
# Hepatocyte = experiment: Antiproliferative activity against human hepatocytes; assay type: cell-based
smiles,measurement,setting,value
Oc1ccc(-c2nnc(Nc3ccc(F)cc3)s2)c(O)c1,Activity,A549 [1],inactive
same,Activity,Homo sapiens [2],Active
same,inhibition,A549 [3],Active
same,Activity,A549 [4],inactive
same,Activity,Homo sapiens [5],Active
same,Activity,[6],Non-toxic
same,inhibition,[7],tde
same,Activity,A549 [8],11.31%
same,Activity,Rhabdomyosarcoma cell,Active
same,Activity,A549 [9],11.03%
same,Activity,A549 [10],inactive
same,inhibition,[11],Dose-dependent effect
same,Activity,A549 [12],43.4%
same,Activity,A549 [13],46.97%
same,Activity,A549 [14],12.89%
same,Activity,A549 [15],inactive
same,Activity,Medulloblastoma cell,Active
same,Activity,A549 [16],inactive
same,Activity,A549 [17],19.84%
same,inhibition,[18],Active
same,Activity,A549 [19],57.4%
same,Activity,A549 [20],inactive
same,Activity,A549 [21],5.403%
same,Activity,[22],Non-toxic
same,Activity,A549 [23],inactive
same,Activity,Homo sapiens [24],Active
same,Activity,A549 [25],Dose-dependent effect
same,inhibition,A549 [26],Active
same,Activity,Glioma cell,Active
same,TIME,[27],24 h
same,inhibition,[28],Dose-dependent effect
same,Activity,A549 [29],22.62%
same,Activity,Hepatocyte,Non-toxic
